# Columns and labels:
# Assay type in all cases: cell-based
# [1] = system: Staphylococcus aureus 447; test: MIC, standard broth micro-dilution assay, SA 447; design: unit not given here
# Procedure: (§1) The antibacterial efficacy of the present compounds is illustrated by Table II. The minimal inhibitory concentrations (MICs) were determined using a standard broth micro-dilution assay.
# [2] = system: Streptococcus pneumoniae P1; test: MIC, standard broth micro-dilution assay, SPN P1; design: unit not given here
# Procedure: as §1
# [3] = system: Enterococcus faecium and faecalis (SENSITIVE); test: MIC, standard broth micro-dilution assay, SENSITIVE enterococci; design: unit not given here; settings: geometric mean of 4-6 isolates
# Procedure: as §1
# [4] = system: Streptococcus pyogenes C203; test: MIC, standard broth micro-dilution assay, SPY C203; design: unit not given here
# Procedure: as §1
# [5] = system: Staphylococcus aureus 446; test: MIC, standard broth micro-dilution assay, SA 446; design: unit not given here
# Procedure: as §1
# [6] = system: Staphylococcus haemolyticus 105; test: MIC, standard broth micro-dilution assay, SH 105; design: unit not given here
# Procedure: as §1
# [7] = system: Enterococcus faecium and faecalis (RESISTANT); settings: geometric mean of 4-6 isolates
# Procedure: as §1
# [8] = system: Staphylococcus haemolyticus 415; test: MIC, standard broth micro-dilution assay, SH 415; design: unit not given here
# Procedure: as §1
# [9] = system: Staphylococcus epidermidis 270; test: MIC, standard broth micro-dilution assay, SE 270; design: unit not given here
# Procedure: as §1
# [10] = system: Staphylococcus aureus 489; test: MIC, standard broth micro-dilution assay, SA 489; design: unit not given here
# Procedure: as §1
SMILES,Minimal Inhibitory Concentration (MIC) SA 447 [1],Minimal Inhibitory Concentration (MIC) SPN P1 [2],Minimal Inhibitory Concentration (MIC) SENSITIVE [3],Minimal Inhibitory Concentration (MIC) SPY C203 [4],Minimal Inhibitory Concentration (MIC) SA 446 [5],Minimal Inhibitory Concentration (MIC) SH 105 [6],Minimal Inhibitory Concentration (MIC) RESISTANT [7],Minimal Inhibitory Concentration (MIC) SH 415 [8],Minimal Inhibitory Concentration (MIC) SE 270 [9],Minimal Inhibitory Concentration (MIC) SA 489 [10]
"C[C@@H]1O[C@@H](O[C@H]2[C@H](Oc3c4cc5cc3Oc3ccc(cc3Cl)[C@@H](O[C@H]3C[C@](C)(N)[C@@H](O)[C@H](C)O3)[C@@H]3NC(=O)[C@H](NC(=O)[C@@H]5NC(=O)[C@H](CC(N)=O)NC(=O)[C@H](NCc5ccc(O)cc5)[C@H](O)c5ccc(c(Cl)c5)O4)c4ccc(O)c(c4)-c4c(O)cc(O)cc4[C@@H](C(=O)O)NC3=O)O[C@H](CO)[C@@H](O)[C@@H]2O)C[C@](C)(N)[C@H]1O [Example 13, N^1 -(p-HYDROXYBENZYL)-DESLEUCYL-A82846B]",32,≤ .06,4,0.25,16,> 64,54,> 64,32,8
"C[C@@H]1O[C@@H](O[C@@H]2c3ccc(c(Cl)c3)Oc3cc4cc(c3O[C@@H]3O[C@H](CO)[C@@H](O)[C@H](O)[C@H]3O[C@H]3C[C@](C)(NCCCCCCCCCCc5ccccc5)[C@@H](O)[C@H](C)O3)Oc3ccc(cc3Cl)[C@@H](O)[C@@H](NCCCCCCCCCCc3ccccc3)C(=O)N[C@@H](CC(N)=O)C(=O)N[C@H]4C(=O)N[C@H]3C(=O)N[C@@H]2C(=O)N[C@H](C(=O)O)c2cc(O)cc(O)c2-c2cc3ccc2O)C[C@](C)(N)[C@H]1O [Example 16, N^1,N^DISACC -BIS(10 PHENYL-n-DECYL)-DESLEUCYL-A82846B]",> 64,16,> 11,8,> 64,> 64,> 128,> 64,> 64,64
"C[C@@H]1O[C@@H](O[C@H]2[C@H](Oc3c4cc5cc3Oc3ccc(cc3Cl)[C@@H](O[C@H]3C[C@](C)(N)[C@@H](O)[C@H](C)O3)[C@@H]3NC(=O)[C@H](NC(=O)[C@@H]5NC(=O)[C@H](CC(N)=O)NC(=O)[C@H](NCc5ccc(OCCCc6ccccc6)cc5)[C@H](O)c5ccc(c(Cl)c5)O4)c4ccc(O)c(c4)-c4c(O)cc(O)cc4[C@@H](C(=O)O)NC3=O)O[C@H](CO)[C@@H](O)[C@@H]2O)C[C@](C)(N)[C@H]1O [Example 21, N^1 -(p-(3-PHENYL-n-PROPOXY)BENZYL)DESLEUCYL-A82846B]",4,≤ .06,32,≤ .06,4,4,> 128,8,4,4
"C[C@@H]1O[C@@H](O[C@@H]2c3ccc(c(Cl)c3)Oc3cc4cc(c3O[C@@H]3O[C@H](CO)[C@@H](O)[C@H](O)[C@H]3O[C@H]3C[C@](C)(NCc5ccc(-c6ccc(Cl)cc6)cc5)[C@@H](O)[C@H](C)O3)Oc3ccc(cc3Cl)[C@@H](O)[C@@H](NCc3ccc(-c5cc(C(F)(F)F)cc(C(F)(F)F)c5)cc3)C(=O)N[C@@H](CC(N)=O)C(=O)N[C@H]4C(=O)N[C@H]3C(=O)N[C@@H]2C(=O)N[C@H](C(=O)O)c2cc(O)cc(O)c2-c2cc3ccc2O)C[C@](C)(N)[C@H]1O [Example 27, N^1 -(p-(3,5-BIS-(TRIFLUOROMETHYL)-PHENYL)BENZYL)-N^DISACC -(p-(p-CHLOROPHENYL)BENZYL-DESLEUCYL-A82846B]",32,32,6.1,64,64,8,9.5,32,8,32
"C[C@@H]1O[C@@H](O[C@@H]2c3ccc(c(Cl)c3)Oc3cc4cc(c3O[C@@H]3O[C@H](CO)[C@@H](O)[C@H](O)[C@H]3O[C@H]3C[C@](C)(NCc5ccc(-c6ccccc6)cc5)[C@@H](O)[C@H](C)O3)Oc3ccc(cc3Cl)[C@@H](O)[C@@H](NCCCCCCc3ccccc3)C(=O)N[C@@H](CC(N)=O)C(=O)N[C@H]4C(=O)N[C@H]3C(=O)N[C@@H]2C(=O)N[C@H](C(=O)O)c2cc(O)cc(O)c2-c2cc3ccc2O)C[C@](C)(N)[C@H]1O [Example 20, N^1 -(6-PHENYL-n-HEXYL)-N^DISACC -(p-PHENYLBENZYL)-DESLEUCYL-A82846B]",4,≤ .06,11,≤ .06,4,1,64,1,1,4
"C[C@@H]1O[C@@H](O[C@@H]2c3ccc(c(Cl)c3)Oc3cc4cc(c3O[C@@H]3O[C@H](CO)[C@@H](O)[C@H](O)[C@H]3O[C@H]3C[C@](C)(NCc5ccc(-c6ccccc6)cc5)[C@@H](O)[C@H](C)O3)Oc3ccc(cc3Cl)[C@@H](O)[C@@H](NCc3ccccc3)C(=O)N[C@@H](CC(N)=O)C(=O)N[C@H]4C(=O)N[C@H]3C(=O)N[C@@H]2C(=O)N[C@H](C(=O)O)c2cc(O)cc(O)c2-c2cc3ccc2O)C[C@](C)(N)[C@H]1O [Example 5, N^1 -BENZYL-N^DISACC -(p-PHENYLBENZYL)-DESLEUCYL-A82846B]",2,0.5,9.2,0.125,2,2,23,2,2,2
"CC1OC(OC2c3ccc(c(Cl)c3)Oc3cc4cc(c3OC3OC(CO)C(O)C(O)C3OC3CC(C)(N)C(O)C(C)O3)Oc3ccc(cc3Cl)C(O)C(NCCCCCCCCCCCCc3ccccc3)C(=O)NC(CC(N)=O)C(=O)NC4C(=O)NC3C(=O)NC2C(=O)NC(C(=O)O)c2cc(O)cc(O)c2-c2cc3ccc2O)CC(C)(N)C1O (centres unmarked) [Example 1, N^1 -(12-PHENYL-n-DODECYL)DESLEUCYL-A82846B]",2,,9.2,0.125,8,4,13,8,4,2
"C[C@@H]1O[C@@H](O[C@H]2[C@H](Oc3c4cc5cc3Oc3ccc(cc3Cl)[C@@H](O[C@H]3C[C@](C)(N)[C@@H](O)[C@H](C)O3)[C@@H]3NC(=O)[C@H](NC(=O)[C@@H]5NC(=O)[C@H](CC(N)=O)NC(=O)[C@H](NCCCCCCCCCCc5ccccc5)[C@H](O)c5ccc(c(Cl)c5)O4)c4ccc(O)c(c4)-c4c(O)cc(O)cc4[C@@H](C(=O)O)NC3=O)O[C@H](CO)[C@@H](O)[C@@H]2O)C[C@](C)(N)[C@H]1O [Example 18, N^1 -(10-PHENYL-n-DECYL)DESLEUCYL-A82846B]",2,0.5,12,0.25,2,4,19,2,4,2
"C[C@@H]1O[C@@H](O[C@H]2[C@H](Oc3c4cc5cc3Oc3ccc(cc3Cl)[C@@H](O[C@H]3C[C@](C)(N)[C@@H](O)[C@H](C)O3)[C@@H]3NC(=O)[C@H](NC(=O)[C@@H]5NC(=O)[C@H](CC(N)=O)NC(=O)[C@H](NCCCCCCCCc5ccccc5)[C@H](O)c5ccc(c(Cl)c5)O4)c4ccc(O)c(c4)-c4c(O)cc(O)cc4[C@@H](C(=O)O)NC3=O)O[C@H](CO)[C@@H](O)[C@@H]2O)C[C@](C)(N)[C@H]1O [Example 19, N^1 -(8-PHENYL-n-OCTYL)DESLEUCYL-A82846B]",1,0.5,254,0.5,2,2,45,2,4,1
